The text below walks through data of paper PMC3407089, “Influence of GABAA Receptor α Subunit Isoforms on the Benzodiazepine Binding Site” (PLoS ONE, 2012).

Holding throughout (assay): Covalent reaction at the functional level (two-electrode voltage clamp, Xenopus oocytes)
What all share (format): cell-based
What all share (settings): after 10 µM 3-NCS and removal of non-covalently reacted 3-NCS; read-out: % allosteric modulation, 3-NCS
Background: Two-electrode voltage clamp holds a large cell at a set potential and records current.

In assay [1] the target is α1S205Cβ2γ2 GABAA receptor (Rattus norvegicus, UniProt P18508+P62813, S232C). How it is done: (§1) Capped cRNAs were synthesized (Ambion, Austin, TX, USA) from the linearized plasmids with a cytomegalovirus promotor (pCMVvectors) containing the different subunits, respectively. A poly-A tail of about 400 residues was added to each transcript using yeast poly- A polymerase (United States Biologicals, Cleveland, OH, USA). The concentration of the cRNA was quantified on a formaldehyde gel using Radiant Red stain (Bio-Rad) for visualization of the RNA. Known concentrations of RNA ladder (Invitrogen) were loaded as standard on the same gel. cRNAs were precipitated in ethanol/isoamylalcohol 19∶ 1, the dried pellet dissolved in water and stored at −80°C. cRNA mixtures were prepared from these stock solutions and stored at −80°C. Xenopus laevis oocytes were prepared, injected and defolliculated as described previously, [39]. They were injected with 50 nL of the cRNA solution containing wild type or mutated α1 or α2, α3, α5, α6 and wild type β2 and γ2 subunits at a concentration of 10 nM : 10 nM : 50 nM [40] and then incubated in modified Barth’s solution at +18°C for at least 24 h before the measurements.
(§2) Tests with a model oocyte were performed to ensure linearity in the larger current range.
(§3) Electrophysiological experiments were performed by using the two-electrode voltage clamp method at a holding potential of −80 mV. The perfusion medium contained 90 mM NaCl, 1 mM KCl, 1 mM MgCl2, 1 mM CaCl2, and 5 mM Na-HEPES (pH 7.4) and was applied by gravity flow 6 ml/min. The perfusion medium was applied through a glass capillary with an inner diameter of 1.35 mm, the mouth of which was placed about 0.4 mm from the surface of the oocyte. Allosteric modulation via the benzodiazepine site was measured at a GABA concentration eliciting 2–5% of the maximal GABA current amplitude.

Assay [2] addresses α1T206Cβ2γ2 GABAA receptor (Rattus norvegicus, UniProt P18508+P62813, T233C). How it is done: as §1, §2, §3
The target in assay [3] is α2S204Cβ2γ2 GABAA receptor (Rattus norvegicus, UniProt P18508+P23576, S232C). How it is done:
as §1, §2, §3

Assay [4] concerns the target α2S205Cβ2γ2 GABAA receptor (Rattus norvegicus, UniProt P18508+P23576, S233C). How it is done: as §1, §2, §3
Assay [5] addresses α2T206Cβ2γ2 GABAA receptor (Rattus norvegicus, UniProt P18508+P23576, T234C). As to the method: as §1, §2, §3

Sequence of α2S205Cβ2γ2 GABAA receptor (P23576 29-451 S233C): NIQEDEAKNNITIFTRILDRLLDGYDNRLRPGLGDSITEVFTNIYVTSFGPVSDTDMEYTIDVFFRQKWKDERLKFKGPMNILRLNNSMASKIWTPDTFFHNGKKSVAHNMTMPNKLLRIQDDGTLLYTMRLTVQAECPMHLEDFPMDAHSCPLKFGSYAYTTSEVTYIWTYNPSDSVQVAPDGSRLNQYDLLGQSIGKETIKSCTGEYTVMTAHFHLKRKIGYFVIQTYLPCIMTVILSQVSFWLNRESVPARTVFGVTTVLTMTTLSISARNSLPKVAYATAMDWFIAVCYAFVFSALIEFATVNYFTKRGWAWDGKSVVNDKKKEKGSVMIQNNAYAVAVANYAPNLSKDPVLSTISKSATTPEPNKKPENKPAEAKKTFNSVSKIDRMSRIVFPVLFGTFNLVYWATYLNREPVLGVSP
Sequence of α2S205Cβ2γ2 GABAA receptor (P18508 39-466, stated change not applied): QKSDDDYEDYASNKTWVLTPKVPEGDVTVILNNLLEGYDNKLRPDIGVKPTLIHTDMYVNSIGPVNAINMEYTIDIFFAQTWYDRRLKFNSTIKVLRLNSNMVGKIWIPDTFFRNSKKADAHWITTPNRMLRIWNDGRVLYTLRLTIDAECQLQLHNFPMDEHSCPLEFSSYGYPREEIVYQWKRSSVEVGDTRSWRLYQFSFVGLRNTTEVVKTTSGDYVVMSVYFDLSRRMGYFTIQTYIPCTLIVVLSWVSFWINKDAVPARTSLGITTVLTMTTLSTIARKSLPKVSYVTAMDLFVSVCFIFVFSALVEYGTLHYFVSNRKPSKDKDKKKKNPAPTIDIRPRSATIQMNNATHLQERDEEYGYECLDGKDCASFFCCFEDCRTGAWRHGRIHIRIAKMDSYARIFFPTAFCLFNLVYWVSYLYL
Sequence of α2S205Cβ2γ2 GABAA receptor (P63138 26-474 partner): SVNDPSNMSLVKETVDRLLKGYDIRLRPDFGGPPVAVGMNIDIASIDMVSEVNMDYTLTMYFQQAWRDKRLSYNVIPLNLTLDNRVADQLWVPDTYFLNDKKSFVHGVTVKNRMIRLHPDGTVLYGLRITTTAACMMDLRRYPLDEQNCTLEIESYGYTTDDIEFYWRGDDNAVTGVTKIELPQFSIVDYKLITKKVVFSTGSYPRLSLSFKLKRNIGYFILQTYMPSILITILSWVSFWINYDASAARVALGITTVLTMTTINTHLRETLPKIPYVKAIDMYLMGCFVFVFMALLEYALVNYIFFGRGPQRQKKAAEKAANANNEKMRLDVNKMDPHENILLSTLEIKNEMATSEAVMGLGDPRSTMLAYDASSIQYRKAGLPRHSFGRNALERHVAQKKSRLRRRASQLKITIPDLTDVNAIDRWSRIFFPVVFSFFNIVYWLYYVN
Sequence of α2T206Cβ2γ2 GABAA receptor (P23576 29-451 T234C): as the sequence (P23576 29-451 S233C) above, with C205S, T206C counted along it
Sequence of α2T206Cβ2γ2 GABAA receptor (P18508 39-466): as the sequence (P18508 39-466, stated change not applied) above
Sequence of α2T206Cβ2γ2 GABAA receptor (P63138 26-474 partner): as the sequence (P63138 26-474 partner) above
Sequence of α1S205Cβ2γ2 GABAA receptor (P62813 28-455 S232C): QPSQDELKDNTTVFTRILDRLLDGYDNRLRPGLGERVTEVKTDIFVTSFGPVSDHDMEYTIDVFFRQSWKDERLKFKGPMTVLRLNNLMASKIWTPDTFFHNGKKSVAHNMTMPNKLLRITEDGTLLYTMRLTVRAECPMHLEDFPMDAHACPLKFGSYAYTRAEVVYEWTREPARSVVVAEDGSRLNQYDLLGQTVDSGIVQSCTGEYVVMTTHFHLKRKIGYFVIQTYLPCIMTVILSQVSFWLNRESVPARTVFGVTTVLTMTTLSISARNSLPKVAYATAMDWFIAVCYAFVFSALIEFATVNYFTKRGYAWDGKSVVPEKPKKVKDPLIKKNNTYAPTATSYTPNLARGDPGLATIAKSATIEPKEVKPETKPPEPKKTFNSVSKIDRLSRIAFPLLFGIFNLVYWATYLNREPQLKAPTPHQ
Sequence of α1S205Cβ2γ2 GABAA receptor (P18508 39-466): as the sequence (P18508 39-466, stated change not applied) above
Sequence of α1S205Cβ2γ2 GABAA receptor (P63138 26-474 partner): as the sequence (P63138 26-474 partner) above
Sequence of α2S204Cβ2γ2 GABAA receptor (P23576 29-451 S232C): as the sequence (P23576 29-451 S233C) above, with S204C, C205S counted along it
Sequence of α2S204Cβ2γ2 GABAA receptor (P18508 39-466): as the sequence (P18508 39-466, stated change not applied) above
Sequence of α2S204Cβ2γ2 GABAA receptor (P63138 26-474 partner): as the sequence (P63138 26-474 partner) above
Sequence of α1T206Cβ2γ2 GABAA receptor (P62813 28-455 T233C): as the sequence (P62813 28-455 S232C) above, with C205S, T206C counted along it
Sequence of α1T206Cβ2γ2 GABAA receptor (P18508 39-466): as the sequence (P18508 39-466, stated change not applied) above
Sequence of α1T206Cβ2γ2 GABAA receptor (P63138 26-474 partner): as the sequence (P63138 26-474 partner) above

`CN1C(=O)C(N=C=S)N=C(c2ccccc2)c2cc([N+](=O)[O-])ccc21` (centres unmarked) [3-NCS]: the activation at 10 µM in assay [1] came out at 60 ± 43%; in assay [2], 119 ± 51%; in assay [3] it was 1 ± 10%; in assay [4], 35 ± 10%; in assay [5] it was 53 ± 29%.
